From patent publication US20240002326A1, “COMPOUNDS AND USE THEREOF IN METHODS OF TREATMENT” (The University of Queensland, priority 2016, published 2024) come the findings set out here.

One data set concerns the target SOX18 (Mus musculus (Mouse), UniProt P43680). In words: Cell-based luciferase SOX18-dependent transactivation (Vcam1 promoter) in COS-7. Particulars: COS7, 24 h. How it is done:
Monkey kidney fibroblast-like cells (COS-7) were cultured at 37° C., 5% CO2 in DMEM (Life technologies, 11995) with FBS, sodium pyruvate, L-glutamine, penicillin, streptomycin, non-essential amino acids and HEPES. Cells were grown in 96-well plates to 80% confluency, and transfected with mouse plasmids pGL2 Vcam 1 promoter construct (VC1889) and pSG5 Sox18, using X-tremeGENE 9 DNA transfection reagent (Roche, 06365787001) (Hosking et al., 2004, Duong et al., 2014). After 4-6 h transfection, cells were incubated with compounds in 0.5% FBS medium for another 24 h, before lysis and luciferase assay (Perkin Elmer, 6016711).

The target in the next data set is SOX18[109] HMG fragment (Mus musculus (Mouse), UniProt P43680). In words: FP DNA-binding competition assay, SOX18[109] HMG fragment. Particulars: for remaining activity at 50 µM: read-out: FP bound fraction (%) 50 μM; for remaining activity at 200 µM: read-out: FP bound fraction (%) 200 μM. The method, boiled down:
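Fluorescence polarization competition using mouse SOX18[109] fragment (residues 69-177, HMG box plus flanks) at 60 nM with 5 nM 5′-FAM 40 bp Prox1 DNA in 10 mM Tris pH 8.0, 100 mM NaCl, 2-3.33% DMSO. Agitated 5 min RT, 10 min 37° C, 30 min RT, then read (ex 485/em 525 nm), triplicates.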

A short description of data set [1]: Cytotoxicity assay (Alamar blue), HEK293. The data set is classed as cell-based. As to conditions: human, HEK293 cells; HEK293, 24 h. Summed up: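 COS-7 cells in DMEM with 10% FBS; HepG2 and HEK293 in DMEM with 1% FBS. After 24 h plating, serial compound dilutions (0.5% DMSO final) added for 24 h at 37° C. Viability from Alamar blue 5 μM, fluorescence 560/590 nm read after 2 h.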
In general terms: Alamar Blue is a resazurin reagent that responds to reducing activity.

Data set [2] can be described thus: Cytotoxicity assay (Alamar blue), HepG2. The data set is classed as cell-based. As to conditions: human, HepG2 cells; HepG2, 24 h.

Chain of SOX18[109] HMG fragment (P43680 69-177): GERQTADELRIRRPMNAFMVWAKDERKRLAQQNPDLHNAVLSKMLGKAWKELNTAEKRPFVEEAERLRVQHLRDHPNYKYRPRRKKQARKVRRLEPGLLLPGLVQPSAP
Chain of SOX18 (P43680 whole entry): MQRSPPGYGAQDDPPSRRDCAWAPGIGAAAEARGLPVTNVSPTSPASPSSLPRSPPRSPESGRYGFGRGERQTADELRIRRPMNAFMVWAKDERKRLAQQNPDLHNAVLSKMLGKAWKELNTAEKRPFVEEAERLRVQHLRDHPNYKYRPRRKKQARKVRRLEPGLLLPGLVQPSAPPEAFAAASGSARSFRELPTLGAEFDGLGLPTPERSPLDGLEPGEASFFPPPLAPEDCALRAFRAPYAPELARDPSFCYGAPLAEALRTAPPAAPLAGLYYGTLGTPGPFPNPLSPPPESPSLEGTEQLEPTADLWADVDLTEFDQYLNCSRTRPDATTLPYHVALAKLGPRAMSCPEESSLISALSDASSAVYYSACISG

Turning to `O=C(O)c1ccccc1Nc1cccc(C(F)(F)F)c1` [Flufenamic acid, reference compound], the “In vitro efficacy in cell IC50 ± SD COS7 (Luc)” value on SOX18 was “cytotoxicity was reached before any concentration-dependent SOX18 inhibition could be observed”.
In the case of `O=C(O)c1c(O)cccc1COCCc1ccccc1` [Sm5], the half-maximal inhibitory concentration (IC50) on SOX18 (read-out: In vitro efficacy in cell IC50 ± SD COS7 (Luc)) is 21 ± 14 µM.
Regarding `CCN(CC)C(=O)c1c(O)cc(O)cc1CCc1ccc2ccccc2c1` [Sm26, N,N,diethyl-2,4-hydroxy-6-(2-(naphthalen-2-yl)ethyl)benzamide], the “FP bound fraction (%) 50 μM” value at SOX18[109] HMG fragment (50 μM, SOX18/DNA binding) turned out to be 98.5 ± 5.9%. For the same compound, on SOX18[109] HMG fragment (200 μM, SOX18/DNA binding), the “FP bound fraction (%) 200 μM” value is recorded as 128.3 ± 17.2%.
As for `COc1cc(C)cc(/C=C/c2ccc3ccccc3c2)c1C(=O)O` [Sm34, (E)-2-methoxy-4-methyl-6-(2-(naphthalen-2-yl)vinyl)benzoic acid], the 50% cytotoxic concentration (CC50) at 24 h in data set [1] and in data set [2] was over 100 µM throughout. The remaining activity at 50 µM on SOX18[109] HMG fragment (50 μM, SOX18/DNA binding) was determined as 94.2 ± 1.9%. Further, the remaining activity at 200 µM on SOX18[109] HMG fragment (200 μM, SOX18/DNA binding) was 101 ± 1.5%.
Consider `Oc1cc(CCc2ccccc2)cc(O)c1O` [Sm40, 5-phenethylbenzene-1,2,3-triol], for which the CC50 at 24 h in data set [1] and in data set [2] was over 100 µM each time. Further, the remaining activity at 50 µM at SOX18[109] HMG fragment (50 μM, SOX18/DNA binding) turned out to be 101 ± 12.1%. Also, the remaining activity at 200 µM on SOX18[109] HMG fragment (200 μM, SOX18/DNA binding) came out at 92.7 ± 14.7%. The “SOX18-DNA binding inhibition (FP, words)” value on SOX18[109] HMG fragment (SAR library, SOX18[109]) is “not active”.

As a reminder, the IC50 is the concentration that inhibits the measured activity by half. A word on the CC50: it is the concentration at which the toxic effect on the cells reaches its halfway point. Read a high CC50 as better tolerance by the cells.
